Data set [1] relates to cerebral metabolic activity. The experiment in a line: NADPARK: FDG-PET, NR-related metabolic pattern (NRRP). The data set is classed as in vivo, human. The text has this:
This novel NR-related metabolic pattern (NRRP) was characterized by multiple regional metabolic changes, including bilateral metabolic reductions in the caudate and putamen, extending into the adjacent globus pallidus, and in the thalamus (FIG. 1D-E). […] The NRRP expression can be derived from the FDG-PET data, as previously described (Cell Metab. 2022 Mar. 1; 34(3):396-407.e6). For example, a NR-related metabolic pattern (NRRP) can be identified by using ordinal trends/canonical variates analysis (OrT/CVA), a supervised form of principal component analysis (PCA) (Habeck et al., (2005), Neural Computation 17, 1602-1645). […] Likewise, the reliability of the voxel loadings (i.e., region weights) on the resulting network topography can be assessed using bootstrap resampling procedures (Habeck and Stern (2010), Cell Biochemistry and Biophysics 58, 53-67; Mure et al. (2011), Neuroimage 54, 1244-1253). The analysis can be restricted to the top PC patterns, accounting for greater than 75% of the subject×voxel variance in the longitudinal data. Expression values for these PCs can then be entered singly and in all possible linear combinations to identify significant monotonic trends in the individual subject data, i.e., consistent increases (or decreases) in pattern expression across the subjects with few if any violations (p<0.05; permutation test, 1000 iterations). The resulting coefficients are applied to the corresponding PC patterns to construct the NR-related topography. […] The analysis can be performed within a population or the individual subject's gray matter brain mask defined by the FDG-PET scans, e.g., as outlined in Table 1.

A further data set concerns NAD metabolome. The data set is described as follows: NR-SAFE: NAD and glutathione metabolites in frozen whole blood (NADMed assay). Format: in vivo, human. As for the experimental part: Analysis was carried out by NADMed (Helsinki, Finland; www.nadmed.com). NAD and glutathione metabolites were extracted from frozen blood in a single step using a proprietary extraction procedure, and each metabolite was measured individually using optimized cyclic enzymatic assays with colorimetric detection.

The next data set concerns brain NAD levels. The data set is described as follows: NAD-brain pharmacokinetic study: brain NAD by 31P-MRS. Format: in vivo, human. The following applies: 1200 mg daily for 8 days. How it is done:
• At screening, participants are assessed for eligibility, inclusion/exclusion criteria, medical history and concomitant medication is recorded, and informed consent signed. • The NAD-brain study performs a parallel assessment of NAD replenishment therapy pharmacokinetics in the blood and brain of healthy human subjects and subjects with Parkinson's disease (PD). Healthy individuals and individuals with PD undergo repeated blood sampling and 31P-MRS brain scans during two 20-day periods, each of which starts with 8 days of daily intake of NR 600 mg×2, or NMN 600 mg×2 (Table 10). • For each 20-day period the testing (i.e., scanning and blood draw) frequency is shown in Table 10, below. The two 20-day periods are 14 days apart to allow for washout of the previous compound. This is a pharmacokinetic (PK) study where 6 healthy individuals (3 male and 3 female): • 1) Received NR 1200 mg daily (600 mg×2) for 8 days, followed by an additional 11 days follow up, while undergoing serial blood and brain NAD-measurement. • 2) Received NMN 1200 mg daily (600 mg×2) for 8 days, followed by an additional 11 days follow up, while undergoing serial blood and brain NAD-measurement. The individuals were mixed, so that in stage-1 three individuals received NR and three individuals received NMN, then in stage-2 they switched (Cross-over design). There were almost three weeks (20 days) of washout between the last dose of the first compound, and before the first dose of the second compounds. In the brain, total NAD (NAD^++NADH) levels were measured by 31P-MRS as previously described^19. […] 19 Brakedal, B. et al. The […] study: A randomized phase I trial of nicotinamide riboside supplementation in Parkinson's disease. Cell Metab 34, 396-407.e6 (2022).

For another data set, the system named is blood NAD levels. The note with it: cited from earlier work.
The next data set relates to adult humans. The following applies: cited from earlier work.
Where [2] appears, read: NADMed assay, V1 to V7, 3000 mg NR daily.

Turning to `NC(=O)c1ccc[n+]([C@@H]2O[C@H](CO)[C@@H](O)[C@H]2O)c1` [NR, nicotinamide riboside], in data set [1] (1000 mg NR), the “effect size (ES) of NRRP expression increase vs placebo” value was 0.883. In data set [1] (1000 mg NR, NR treatment group), the “increase in NRRP expression (mean±SD)” value was 0.68±0.86. Moreover, in data set [1] (NR group, 1000 mg daily, FDG-PET), the “effect of NRRP expression change on PD cerebral metabolic pattern” value is “partial normalization of the striatal and thalamic hypermetabolism”. The “increase in whole blood NAD^+ levels” value in the data set with NAD metabolome (3000 mg NR daily, 4 weeks) is around 3.7 fold. Further, the “increase in whole blood NAD^+ levels, range” value with NAD metabolome (3000 mg NR daily, 4 weeks, range across individuals) is on record as 1.8-5.8 fold. The “increase in blood NAD^+ levels (maximum)” value with NAD metabolome (3000 mg NR daily, 4 weeks, summary statement) is on record as “up to 5 fold”. In the data set with NAD metabolome (setting [2]), the “whole blood GSH and GSSG” value is listed as “remained unchanged”; the “whole blood NADH level” value is listed as “marked increase”; the “whole blood NADP^+ and total NADP levels” value is “increase in NADP^+ and total NADP levels”; the “whole blood NADP^+/NADPH ratio” value was “trend towards increased NADP^+/NADPH ratio”. In the data set with NAD metabolome (setting [2]), the “whole blood NAD^+ level” value is on record as “marked increase” and the “whole blood NAD^+/NADH ratio” value is reported as “overall elevated NAD^+/NADH ratio”. Also, in the data set with brain NAD levels (31P-MRS, day 9 (NR), day 8 (NMN)), the “brain NAD levels, baseline vs day of maximal blood NAD” value was “significant increase in brain NAD levels”. Moreover, in the data set on brain NAD levels (11 days after last dose), the “NAD levels at day 19” value was “remained elevated”. For the same molecule, the “blood NAD levels in a 24h-period after intake” value with blood NAD levels (1000 mg NR after increasing NR doses twice daily for nine days) is listed as “stably increased”. In addition, in the data set on blood NAD levels (1000 mg NR, single subject), the “blood NAD levels 23.8 h after intake” value was “decreased, but not yet to baseline” and the “time of peak blood NAD levels after intake” value was 7.7 h. Besides, in the data set with blood NAD levels (1000 mg or 2000 mg NR daily, reported studies), the “increase of blood NAD^+ levels” value is recorded as 1.37-2.8 fold. Further, the “triglycerides, total cholesterol and LDL” value in the data set with adult humans (NR at lower doses, e.g., in combination with pterostilbene) is “mild increase in triglycerides, total cholesterol and LDL”. For the same molecule, the “tolerability in adult humans” value in the data set with adult humans (doses up to at least 2000 mg daily) is “well tolerated with no evidence of toxicity”.
